One series relates to Molt-4 T-cell Leukemia. As to conditions: molt-4 cells.
The subject of a further series is PC-3 Prostate Carcinoma. As to conditions: pc-3 cells.
Series [1] deals with DU-145 Prostate Carcinoma. As to conditions: du-145 cells.
Series [2] deals with Ln-Cap Prostate Carcinoma. The following applies: lncap cells.
In series [3] the test system is Ovcar-3 Ovarian Carcinoma. The following applies: ovcar-3 cells.
The subject of the next series is MCF-7 Breast Carcinoma. The following applies: mcf-7 cells.
Series [4] is described as follows: Water solubility / formulation in aqueous vehicles.
Series [5] has as its system panel of human tumor cell lines. Nature of the series: Cytotoxic activity in a panel of human tumor cell lines as compared to paclitaxel.
For series [6] the following is noted: Physician's Desk Reference (1994) 670, cited from earlier work.
The conditions of series [7]: background; cited from earlier work.
Series [8] deals with PC-3 human prostate tumor. Kind of series: In vivo efficacy against established PC-3 human prostate tumor in athymic nude mice. The source says:
Example 11. In vivo efficacy of Taxoid BP-193

Entries after “also recorded” stand apart in the source; their conditions may differ.

As for `CC(=O)O[C@H]1C(=O)[C@]2(C)[C@@H](OC(=O)OCC(O)CO)C[C@H]3OC[C@@]3(OC(C)=O)[C@H]2[C@H](OC(=O)c2ccccc2)[C@]2(O)C[C@H](OC(=O)[C@H](O)[C@@H](NC(=O)c3ccccc3)c3ccccc3)C(C)=C1C2(C)C` (stereo partly shown) [BP-179, 7-(2",3"-dihydroxypropylcarbonoxy)paclitaxel], the IC50 in the series with Molt-4 T-cell Leukemia was found to be 0.199 µM; in the series with PC-3 Prostate Carcinoma, 0.00324 µM; in [1], 0.0205 µM; in series [2] it was 0.0205 µM; in [3], 0.05 µM; in the series on MCF-7 Breast Carcinoma, 0.815 µM.
For `CC(=O)O[C@H]1C(=O)[C@]2(C)[C@@H](OC(=O)OCC(O)CO)C[C@H]3OC[C@@]3(OC(C)=O)[C@H]2[C@H](OC(=O)c2ccccc2)[C@]2(O)C[C@H](OC(=O)[C@H](OC(=O)OCC(O)CO)[C@@H](NC(=O)c3ccccc3)c3ccccc3)C(C)=C1C2(C)C` (stereo partly shown) [BP-177, 2',7-di(2",3"-dihydroxypropylcarbonoxy)paclitaxel], the IC50 with Molt-4 T-cell Leukemia amounted to 0.703 µM; with PC-3 Prostate Carcinoma it was 0.0573 µM; in [1], 0.0914 µM; in series [2] it was 0.0271 µM; in series [3], 0.05 µM; in the series on MCF-7 Breast Carcinoma, 0.335 µM. Besides, the “formulation in aqueous vehicles” value in [4] was “readily formulated in standard aqueous vehicles”. Besides, the “water solubility as compared with paclitaxel” value in series [4] was “more water soluble than paclitaxel”. For the same compound, the “cytotoxic activity as compared to paclitaxel” value in series [5] is on record as “comparable cytotoxic activity to paclitaxel”.
Turning to `CC(=O)O[C@H]1C(=O)[C@]2(C)[C@@H](OC(=O)NCCN3C(=S)N(c4ccc(C#N)c(C(F)(F)F)c4)C(=O)C3(C)C)C[C@H]3OC[C@@]3(OC(C)=O)[C@H]2[C@H](OC(=O)c2ccccc2)[C@]2(O)C[C@H](OC(=O)[C@H](O)[C@@H](NC(=O)c3ccccc3)c3ccccc3)C(C)=C1C2(C)C` [BP-196, 7-[imidazolidinyl-5", 5"-dimethyl-4"-oxo-3"-[(4"'-cyano-3"'-trifluoromethyl)phenyl]-2"-thioxo-1"ethylcarbamoxy]paclitaxel], in [4], the “formulation in aqueous vehicles” value was “readily formulated in standard aqueous vehicles” and the “water solubility as compared with paclitaxel” value is listed as “more water soluble than paclitaxel”. Further, the “cytotoxic activity as compared to paclitaxel” value in series [5] is reported as “comparable cytotoxic activity to paclitaxel”.
For the compound `CC(=O)O[C@H]1C(=O)[C@@]2(C)[C@H]([C@H](OC(=O)c3ccccc3)[C@]3(O)C[C@H](OC(=O)[C@H](O)[C@@H](NC(=O)c4ccccc4)c4ccccc4)C(C)=C1C3(C)C)[C@]1(OC(C)=O)CO[C@@H]1C[C@@H]2O` [Taxol, paclitaxel, reference compound], the 50% inhibitory concentration (IC50) came out at 0.00212 µM in series [1], 0.0015 µM in [2], 0.00224 µM in series [3] and 0.005 µM in the series with MCF-7 Breast Carcinoma. Moreover, the “plasma concentration following infusion” value in series [6] is “rapidly declines following infusion”. Also, the “mean steady state volume of distribution” value in series [6] (following infusion) was 42 to 162 LIm^2. Further, the “side effects (hypersensitivity, myelosuppression, neuropathy, alopecia, cardio-toxicity)” value in series [7] is recorded as “about 30 % of patients”.
In the case of `CC(=O)O[C@H]1C(=O)[C@@]2(C)[C@H]([C@H](OC(=O)c3ccccc3)[C@]3(O)C[C@H](OC(=O)[C@H](OC(=O)OCCC(O)CO)[C@@H](NC(=O)c4ccccc4)c4ccccc4)C(C)=C1C3(C)C)[C@]1(OC(C)=O)CO[C@@H]1C[C@@H]2O` (stereo partly shown) [BP-193, 2'-(3^11,4"-dihydroxybutyl-carbonoxy)paclitaxel], in series [8] (PC-3 tumor-bearing mice), the “toxicity as compared with paclitaxel” value is “lacking the toxicity of paclitaxel”. Besides, the tumor regression result in series [8] (all mice treated with BP-193) was “all tumors regressed to pretreatment levels”. Besides, in series [8] (established PC-3 tumor, vs vehicle and Taxol control), the “anti-cellular proliferative activity, as measured by the reduction in tumor growth” value is given as “significant anti-cellular proliferative activity”. The IC50 in the series with Molt-4 T-cell Leukemia is 0.00397 µM; in the series with PC-3 Prostate Carcinoma it was 1.55 µM; in series [1], 0.0014 µM; in [2] it was 0.0195 µM; in [3] it was 0.055 µM; in the series on MCF-7 Breast Carcinoma, 0.00865 µM. Moreover, the “formulation in aqueous vehicles” value in series [4] is listed as “readily formulated in standard aqueous vehicles”. In addition, the “water solubility as compared with paclitaxel” value in series [4] was “more water soluble than paclitaxel”. The “cytotoxic activity as compared to paclitaxel” value in series [5] was “cytotoxic activity equal to, or greater than, paclitaxel”.
For `CC(=O)O[C@H]1C(=O)[C@@]2(C)[C@H]([C@H](OC(=O)c3ccccc3)[C@]3(O)C[C@H](OC(=O)[C@H](OC(=O)NCC(O)CO)[C@@H](NC(=O)c4ccccc4)c4ccccc4)C(C)=C1C3(C)C)[C@]1(OC(C)=O)CO[C@@H]1C[C@@H]2O` (stereo partly shown) [BP-174, 2'-(2",3"-dihydroxypropylcarbamoxy) paclitaxel], in series [4], the “formulation in aqueous vehicles” value was “readily formulated in standard aqueous vehicles” and the “water solubility as compared with paclitaxel” value was “more water soluble than paclitaxel; also recorded: enhanced water solubility as compared with paclitaxel”. Besides, in series [5], the “cytotoxic activity as compared to paclitaxel” value was “comparable cytotoxic activity to paclitaxel”.
As for `CC(=O)O[C@H]1C(=O)[C@@]2(C)[C@H]([C@H](OC(=O)c3ccccc3)[C@]3(O)C[C@H](OC(=O)[C@H](OC(=O)OCC(O)CO)[C@@H](NC(=O)c4ccccc4)c4ccccc4)C(C)=C1C3(C)C)[C@]1(OC(C)=O)CO[C@@H]1C[C@@H]2O` (stereo partly shown) [BP-171, 2'-(2",3"-dihydroxypropylcarbonoxy)paclitaxel], in series [4], the “formulation in aqueous vehicles” value is on record as “readily formulated in standard aqueous vehicles” and the “water solubility as compared with paclitaxel” value is reported as “more water soluble than paclitaxel; also recorded: enhanced water solubility as compared with paclitaxel”. Also, in series [5], the “cytotoxic activity as compared to paclitaxel” value was “cytotoxic activity equal to, or greater than, paclitaxel”.
